Results on 6 molecules are retold here after ChEMBL document CHEMBL1139269, “Stereoselective inhibition of serotonin re-uptake and phosphodiesterase by dual inhibitors as potential agents for depression” (Bioorg Med Chem, 2009).

Assay [1] addresses T1, Sodium-dependent dopamine transporter (Homo sapiens, UniProt Q01959). Kind of assay: Inhibition of [3H]DA from human recombinant DAT expressed in HEK293 cells. The assay is classed as cell-based.
Assay [2] deals with T2, Sodium-dependent noradrenaline transporter (Homo sapiens, UniProt P23975). Description: Inhibition of [3H]NE from human recombinant NET expressed in HEK293 cells. It is filed as cell-based.
T2 sequence (P23975 whole entry): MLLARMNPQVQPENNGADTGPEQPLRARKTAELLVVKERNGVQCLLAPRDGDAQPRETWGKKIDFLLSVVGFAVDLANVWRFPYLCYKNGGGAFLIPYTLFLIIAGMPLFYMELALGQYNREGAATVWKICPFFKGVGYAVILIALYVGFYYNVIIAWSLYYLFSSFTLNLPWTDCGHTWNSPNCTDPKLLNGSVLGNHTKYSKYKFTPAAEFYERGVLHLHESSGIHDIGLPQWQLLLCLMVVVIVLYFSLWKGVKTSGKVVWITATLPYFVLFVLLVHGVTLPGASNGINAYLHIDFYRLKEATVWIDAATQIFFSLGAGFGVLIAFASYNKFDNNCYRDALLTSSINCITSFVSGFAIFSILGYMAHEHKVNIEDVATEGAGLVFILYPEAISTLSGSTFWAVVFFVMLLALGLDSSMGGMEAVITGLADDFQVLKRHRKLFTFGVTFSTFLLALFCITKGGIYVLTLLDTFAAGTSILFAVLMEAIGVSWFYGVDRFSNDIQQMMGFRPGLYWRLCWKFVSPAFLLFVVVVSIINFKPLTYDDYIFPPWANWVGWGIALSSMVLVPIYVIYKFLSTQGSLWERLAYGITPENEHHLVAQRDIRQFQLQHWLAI
Assay [3] deals with T3, 3',5'-cyclic-AMP phosphodiesterase 4D (Homo sapiens, UniProt Q08499). Kind of assay: Inhibition of PDE4D2 by rapid fluorescence based assay.
T3 sequence (Q08499 whole entry): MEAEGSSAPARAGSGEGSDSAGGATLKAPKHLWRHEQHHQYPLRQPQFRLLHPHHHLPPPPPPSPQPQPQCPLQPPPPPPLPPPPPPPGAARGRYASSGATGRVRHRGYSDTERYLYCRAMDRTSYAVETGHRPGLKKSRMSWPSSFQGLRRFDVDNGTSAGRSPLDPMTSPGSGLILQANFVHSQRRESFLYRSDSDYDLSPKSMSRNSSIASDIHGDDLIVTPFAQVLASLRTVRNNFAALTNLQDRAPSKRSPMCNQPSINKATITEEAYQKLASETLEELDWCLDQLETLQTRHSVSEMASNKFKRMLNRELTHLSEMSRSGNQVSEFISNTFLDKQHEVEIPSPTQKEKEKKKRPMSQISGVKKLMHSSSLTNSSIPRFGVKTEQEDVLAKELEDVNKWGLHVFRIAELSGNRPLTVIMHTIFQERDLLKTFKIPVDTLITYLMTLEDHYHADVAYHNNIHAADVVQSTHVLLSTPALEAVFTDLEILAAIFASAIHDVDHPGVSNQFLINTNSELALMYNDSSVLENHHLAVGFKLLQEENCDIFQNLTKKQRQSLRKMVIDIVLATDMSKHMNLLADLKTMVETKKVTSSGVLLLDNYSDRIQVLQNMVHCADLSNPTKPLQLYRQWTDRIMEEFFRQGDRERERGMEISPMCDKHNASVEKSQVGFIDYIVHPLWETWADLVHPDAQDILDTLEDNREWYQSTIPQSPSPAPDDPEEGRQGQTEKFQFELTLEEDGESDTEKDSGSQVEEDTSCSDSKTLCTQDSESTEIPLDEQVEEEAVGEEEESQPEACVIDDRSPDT
The target of assay [4] is T4, Sodium-dependent serotonin transporter (Homo sapiens, UniProt P31645). Description: Inhibition of [3H]5HT from human recombinant SERT expressed in HEK293 cells. It is filed as cell-based.
T4 sequence (P31645 whole entry): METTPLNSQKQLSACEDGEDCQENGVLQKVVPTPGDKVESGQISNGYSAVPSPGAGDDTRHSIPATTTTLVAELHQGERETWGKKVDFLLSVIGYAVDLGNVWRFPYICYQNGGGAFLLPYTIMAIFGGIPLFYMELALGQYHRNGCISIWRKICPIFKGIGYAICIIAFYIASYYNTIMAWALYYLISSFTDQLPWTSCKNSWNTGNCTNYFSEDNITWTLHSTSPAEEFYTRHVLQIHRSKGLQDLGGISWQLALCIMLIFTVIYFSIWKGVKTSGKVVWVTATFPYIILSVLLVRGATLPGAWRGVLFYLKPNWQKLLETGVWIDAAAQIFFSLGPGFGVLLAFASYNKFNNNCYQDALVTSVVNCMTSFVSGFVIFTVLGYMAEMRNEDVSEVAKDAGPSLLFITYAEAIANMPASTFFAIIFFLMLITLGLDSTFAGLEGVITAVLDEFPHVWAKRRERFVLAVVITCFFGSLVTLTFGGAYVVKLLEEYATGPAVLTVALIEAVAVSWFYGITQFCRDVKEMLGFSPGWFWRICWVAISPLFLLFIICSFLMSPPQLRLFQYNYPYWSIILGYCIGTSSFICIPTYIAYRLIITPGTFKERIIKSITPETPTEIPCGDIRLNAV
Assay [5] addresses T1, Sodium-dependent dopamine transporter. Description: Displacement of [125I]RTI55 from human recombinant DAT expressed in HEK293 cells. The assay is classed as cell-based.
For assay [6], the target named is T2, Sodium-dependent noradrenaline transporter. Description: Displacement of [125I]RTI55 from human recombinant NET expressed in HEK293 cells. It is filed as cell-based.
Assay [7] addresses T4, Sodium-dependent serotonin transporter. Kind of assay: biochemical. It is filed as cell-based, HEK293.
The target of assay [8] is T3, 3',5'-cyclic-AMP phosphodiesterase 4D. Kind of assay: Inhibition of PDE4D2 at 100 uM by rapid fluorescence based assay.

Molecules are shown by their SMILES. Activity calls are given as the source filed them. No cut-off for these calls is given here.

T1 sequence (Q01959 whole entry): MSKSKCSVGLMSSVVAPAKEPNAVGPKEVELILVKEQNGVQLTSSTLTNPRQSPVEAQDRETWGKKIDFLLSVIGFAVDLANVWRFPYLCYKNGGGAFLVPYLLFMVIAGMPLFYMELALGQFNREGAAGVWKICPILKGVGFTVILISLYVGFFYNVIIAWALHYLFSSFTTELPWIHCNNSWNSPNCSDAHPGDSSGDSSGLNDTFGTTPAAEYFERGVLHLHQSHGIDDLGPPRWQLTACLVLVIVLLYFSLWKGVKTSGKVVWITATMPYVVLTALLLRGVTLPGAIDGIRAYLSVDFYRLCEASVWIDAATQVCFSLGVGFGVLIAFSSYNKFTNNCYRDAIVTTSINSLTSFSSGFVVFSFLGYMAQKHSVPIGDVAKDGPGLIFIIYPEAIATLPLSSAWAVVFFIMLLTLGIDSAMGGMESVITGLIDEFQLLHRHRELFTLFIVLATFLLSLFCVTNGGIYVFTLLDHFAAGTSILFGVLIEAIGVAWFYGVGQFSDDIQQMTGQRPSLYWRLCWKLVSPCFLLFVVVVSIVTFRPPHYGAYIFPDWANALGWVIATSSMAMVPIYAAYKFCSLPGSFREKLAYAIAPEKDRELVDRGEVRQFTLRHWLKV

For the molecule `COc1ccc(C2=NN(CCCCCNCC[C@H](Oc3ccc(C(F)(F)F)cc3)c3ccccc3)C(=O)C3CC=CCC23)cc1OC` (stereo not given in full), the 50% inhibitory concentration (IC50) is 5.98 µM in assay [1], 6.55 µM in assay [2], 0.253 µM in assay [3] and 0.042 µM in assay [4]. The inhibitory constant (Ki) is 2.72 µM in assay [5], 4.6 µM in assay [6] and 0.3 µM in assay [7].

`NCC[C@@H](Oc1ccc(C(F)(F)F)cc1)c1ccccc1`: the IC50 was determined as 7.13 µM in assay [1] and 2 µM in assay [2]. For the same molecule, the Ki is 3.66 µM in assay [5] and 7.49 µM in assay [6]. For the same molecule, the outcome in assay [8] was inactive.

Take `COc1ccc(C2=NNC(=O)C3CC=CCC23)cc1OC` (stereo not given): the IC50 was over 100 µM in assay [1], over 100 µM in assay [2], 0.213 µM in assay [3] and over 100 µM in assay [4]. Besides, the Ki in assay [5], in assay [6] and in assay [7] was over 100 µM throughout.

As for `NCC[C@H](Oc1ccc(C(F)(F)F)cc1)c1ccccc1` [SEPROXETINE], the IC50 in assay [1] was 6.49 µM; in assay [2], 2.81 µM; in assay [3], at least 100 µM. Further, the values for the inhibitory constant (Ki) in assay [5] and in assay [6] were 4.54 µM and 6.19 µM, respectively.

In the case of `COc1ccc(C2=NN(CCCCCNCC[C@@H](Oc3ccc(C(F)(F)F)cc3)c3ccccc3)C(=O)C3CC=CCC23)cc1OC` (stereo not given in full), the IC50 in assay [1] was over 7 µM; in assay [2], 6.81 µM; in assay [3], 0.106 µM; in assay [4], 0.173 µM. Moreover, the inhibitory constant (Ki) came out at 4.49 µM in assay [5], 6.57 µM in assay [6] and 0.065 µM in assay [7].

Regarding `COc1ccc(C2=NN(CCCCCBr)C(=O)C3CC=CCC23)cc1OC` (stereo not given), the half-maximal inhibitory concentration (IC50) in assay [1] and in assay [4] was over 100 µM in each case. The Ki in assay [5] and in assay [7] was over 100 µM in each case.
